Values joined by “and” are separate entries in the source; they are usually repeats but may differ in a detail not shown here. Equal values may be shown once.
System: db/db mice
Experiment: Blood-sugar-lowering activity in db/db obese mice (oral, daily for 5 days)
Type: in vivo
Conditions: for % change in blood glucose after 5 days of treatment (decrease): reduction vs day 0
Protocol: Db/db mice are commonly used as an in vivo model for studying type II diabetes in animals. Db/db (C57BLKS/J-m+/+Lepr^db) obese mice are obtained from Jackson Laboratories (Maine) and maintained in a temperature-controlled (25° C.) facility with a strict 12-h light/dark cycle and given free access to food and water. Mice are fed pelleted rodent chow which is low in fat (4% w/w). Fasting mice are orally administered with isovitexin dissolved in aqueous vehicle containing 50% PEG50% (10 mg/kg body weight) in a total volume of 200 μL or vehicle alone daily for 5 days. Food is removed from mice 4 hours before the collection of blood from the tail vein. Blood is obtained from mice by drawing one drop of blood (˜50 μL) from the tail vein for glucose analysis. Blood glucose is analyzed using a digital glucometer. Db/db obese mice (n=3: test; n=4: vehicle) were treated daily with 200 μL of isovitexin dissolved in an aqueous solution of PEG 50% (10 mg/kg body weight) or vehicle alone for 5 days. Blood glucose was estimated on day 0, one day prior to initiation of the treatment and on day 5, four hours after withdrawal of food. Blood was obtained from mice by drawing one drop of blood (˜50 μL) from the tail vein for glucose analysis. Blood glucose was analyzed using a digital glucometer and performed in duplicate. Blood glucose values are described as mg/dL±SD. The blood glucose levels in the vehicle treated group (n=4) were 446±35 on day 0 and 477±48 on day 5. […] The results are summarized in Tables 1 and 2 below, and FIG. 1.

Q: With `O=c1cc(-c2ccc(O)cc2)oc2cc(O)c([C@@H]3O[C@H](CO)[C@@H](O)[C@H](O)[C@H]3O)c(O)c12` [Isovitexin, 4H-1-benzopyran-4-one, 6-β-D-glucopyranosyl-5,7-dihydroxy-2-(4-hydroxyphenyl)] as the compound, how does the “blood glucose levels, group mean on day 0” value (db/db mice n=3, isovitexin group before treatment, ± SD) read?
A: 493 ± 54 mg/dL

Q: And the “blood glucose levels, group mean on day 5” value (db/db mice n=3, oral 10 mg/kg daily for 5 days, ± SD)?
A: 404 ± 10 mg/dL

Q: What about the “lowering of blood glucose (in words)” value (db/db mice, 10 mg/kg body weight) of the same compound?
A: effective in lowering of blood glucose

Q: And the “blood glucose levels, before treatment (day 0), individual mouse” value (db/db mice, isovitexin group baseline day 0, one day prior to treatment, ± SD of duplicate)?
A: 473 ± 6.36 mg/dL and 554 ± 7.07 mg/dL and 451 ± 21 mg/dL

Q: And the “blood glucose levels, after treatment with isovitexin (day 5), individual mouse” value (db/db mice, oral 10 mg/kg daily for 5 days, 4 h after food withdrawal, ± SD of duplicate, 10 mg/kg)?
A: 400 ± .71 mg/dL and 415 ± 21.9 mg/dL and 396 ± 2.12 mg/dL

Q: What about the “% change in blood glucose after 5 days of treatment (decrease)” value (db/db mice, oral 10 mg/kg daily for 5 days, 10 mg/kg) of the same compound?
A: 17.8 ± 7.21 (decrease) %

Q: What about the “% change in blood glucose after 5 days of treatment (decrease)” value (db/db mice, oral 10 mg/kg daily for 5 days, listed as DP-1032T, 10 mg/kg) of the same compound?
A: ~17.8%
